PubChem BioAssay (NCI)
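Method: 48-hour compound exposure of cells in 96-well plates, five concentrations, linear interpolation of endpoints. At the TGI there is no net growth.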

Legend:
Test in all cases: NCI anticancer screen, dose series, 48 h
MCF7 breast = tested on: MCF7 breast
SF-268 CNS = tested on: SF-268 CNS
HCT-116 colon = tested on: HCT-116 colon
RPMI-8226 leukemia = tested on: RPMI-8226 leukemia
K-562 leukemia = tested on: K-562 leukemia
HT29 colon = tested on: HT29 colon
TK-10 renal = tested on: TK-10 renal
SNB-19 CNS = tested on: SNB-19 CNS
HOP-92 NSCLC = tested on: HOP-92 NSCLC
SK-MEL-5 melanoma = tested on: SK-MEL-5 melanoma

NCCCC(N)C(=O)O (centres undefined)
TGI (MCF7 breast): > 100 µM | TGI (SF-268 CNS): > 100 µM | TGI (HCT-116 colon): > 100 µM | TGI (RPMI-8226 leukemia): > 100 µM | TGI (K-562 leukemia): > 100 µM | TGI (HT29 colon): > 100 µM | TGI (TK-10 renal): > 100 µM | TGI (SNB-19 CNS): > 100 µM | TGI (HOP-92 NSCLC): > 100 µM | TGI (SK-MEL-5 melanoma): > 100 µM

COC(c1ccc(C(C)(C)C)cc1)(c1ccc(C(C)(C)C)cc1)c1cc(C(O)(c2cc(C(OC)(c3ccc(C(C)(C)C)cc3)c3ccc(C(C)(C)C)cc3)c(C)cc2C)c2cc(C(OC)(c3ccc(C(C)(C)C)cc3)c3ccc(C(C)(C)C)cc3)c(C)cc2C)c(C)cc1C
TGI (MCF7 breast): > 100 µM | TGI (SF-268 CNS): > 100 µM | TGI (HCT-116 colon): > 100 µM | TGI (K-562 leukemia): > 100 µM | TGI (HT29 colon): > 100 µM | TGI (TK-10 renal): > 100 µM | TGI (HOP-92 NSCLC): > 100 µM | TGI (SK-MEL-5 melanoma): > 100 µM

CN1C(=O)CN(NC(=O)C2=C(O)c3ccc(Br)cc3S(=O)(=O)N2)C1=S
TGI (MCF7 breast): > 100 µM | TGI (SF-268 CNS): > 100 µM | TGI (HCT-116 colon): > 100 µM | TGI (RPMI-8226 leukemia): > 100 µM | TGI (K-562 leukemia): > 100 µM | TGI (HT29 colon): > 100 µM | TGI (TK-10 renal): > 100 µM | TGI (SNB-19 CNS): > 100 µM | TGI (HOP-92 NSCLC): > 100 µM | TGI (SK-MEL-5 melanoma): > 100 µM

CCOC(=O)c1c(SCCN2CCCC2)n(-c2ccccc2)c(=S)n(-c2ccccc2)c1=O
TGI (MCF7 breast): 3.36 µM | TGI (SF-268 CNS): 10.1 µM | TGI (HCT-116 colon): 8.39 µM | TGI (RPMI-8226 leukemia): 5.87 µM | TGI (K-562 leukemia): 5.63 µM | TGI (HT29 colon): 11.5 µM | TGI (TK-10 renal): 3.06 µM | TGI (SNB-19 CNS): 31.2 µM | TGI (HOP-92 NSCLC): 4.48 µM | TGI (SK-MEL-5 melanoma): 10 µM

O=C(O)Cc1ccc2nc(COC(=O)c3ccccc3)sc2c1
TGI (MCF7 breast): > 100 µM | TGI (SF-268 CNS): > 100 µM | TGI (HCT-116 colon): > 100 µM | TGI (RPMI-8226 leukemia): > 100 µM | TGI (K-562 leukemia): > 100 µM | TGI (TK-10 renal): > 100 µM | TGI (SNB-19 CNS): > 100 µM | TGI (HOP-92 NSCLC): > 100 µM | TGI (SK-MEL-5 melanoma): > 100 µM

O=C(OCc1ccccc1)OOC(=O)OCc1ccccc1
TGI (SF-268 CNS): > 100 µM | TGI (HCT-116 colon): > 100 µM | TGI (RPMI-8226 leukemia): > 100 µM | TGI (K-562 leukemia): > 100 µM | TGI (HT29 colon): > 100 µM | TGI (SNB-19 CNS): > 100 µM | TGI (HOP-92 NSCLC): > 100 µM | TGI (SK-MEL-5 melanoma): > 100 µM

C[C@@H]1C[C@H](O)[C@]2(O)O[C@@H]3C[C@@]4(C=O)[C@@H](CC=C5[C@@H]4CC[C@]4(C)[C@@H](C6=CC(=O)OC6)CC[C@]54O)C[C@H]3O[C@@H]2O1
TGI (SF-268 CNS): 0.166 µM | TGI (HCT-116 colon): 0.036 µM | TGI (RPMI-8226 leukemia): 0.349 µM | TGI (K-562 leukemia): > 100 µM | TGI (HT29 colon): 0.25 µM | TGI (TK-10 renal): 0.186 µM | TGI (SNB-19 CNS): 0.93 µM | TGI (HOP-92 NSCLC): 0.174 µM | TGI (SK-MEL-5 melanoma): 0.133 µM

O=C1C(C=NCCc2c[nH]c3ccccc23)C(C(F)(F)F)=NN1c1nc2ccccc2s1 (centres undefined)
TGI (MCF7 breast): 57.2 µM | TGI (SF-268 CNS): > 100 µM | TGI (HCT-116 colon): > 100 µM | TGI (RPMI-8226 leukemia): 62.5 µM | TGI (K-562 leukemia): > 100 µM | TGI (HT29 colon): 88 µM | TGI (TK-10 renal): 62.1 µM | TGI (SNB-19 CNS): > 100 µM | TGI (HOP-92 NSCLC): 48.5 µM | TGI (SK-MEL-5 melanoma): 37.1 µM

COc1ccc2c(c1)C(=O)c1ccccc1C2
TGI (MCF7 breast): > 100 µM | TGI (SF-268 CNS): > 100 µM | TGI (HCT-116 colon): > 100 µM | TGI (RPMI-8226 leukemia): > 100 µM | TGI (K-562 leukemia): > 100 µM | TGI (HT29 colon): > 100 µM | TGI (TK-10 renal): > 100 µM | TGI (SNB-19 CNS): > 100 µM | TGI (HOP-92 NSCLC): > 100 µM | TGI (SK-MEL-5 melanoma): > 100 µM

CCN(CC)CCCn1c(=O)c2cccnc2n2c3c(=O)n(C)c(=O)n(C)c3nc12
TGI (MCF7 breast): > 100 µM | TGI (SF-268 CNS): > 100 µM | TGI (HCT-116 colon): > 100 µM | TGI (RPMI-8226 leukemia): > 100 µM | TGI (K-562 leukemia): > 100 µM | TGI (HT29 colon): > 100 µM | TGI (TK-10 renal): > 100 µM | TGI (SNB-19 CNS): > 100 µM | TGI (HOP-92 NSCLC): > 100 µM | TGI (SK-MEL-5 melanoma): > 100 µM

CC(C)c1c(P(=O)(c2ccccc2)c2ccccc2)n(C)c2ccccc12
TGI (MCF7 breast): > 100 µM | TGI (SF-268 CNS): > 100 µM | TGI (HCT-116 colon): > 100 µM | TGI (RPMI-8226 leukemia): > 100 µM | TGI (K-562 leukemia): > 100 µM | TGI (HT29 colon): > 100 µM | TGI (TK-10 renal): > 100 µM | TGI (SNB-19 CNS): > 100 µM | TGI (HOP-92 NSCLC): > 100 µM

CCn1c(=O)c2c3cc(O)ccc3oc2c2ccc(O)cc21
TGI (MCF7 breast): > 100 µM | TGI (SF-268 CNS): > 100 µM | TGI (K-562 leukemia): > 100 µM | TGI (HT29 colon): 77.5 µM | TGI (TK-10 renal): > 100 µM | TGI (SNB-19 CNS): > 100 µM | TGI (HOP-92 NSCLC): 80.3 µM | TGI (SK-MEL-5 melanoma): > 100 µM

O=C1C(Br)=Cc2c(Cl)sc(Cl)c21
TGI (MCF7 breast): 11.5 µM | TGI (SF-268 CNS): > 28 µM | TGI (HCT-116 colon): 6.25 µM | TGI (RPMI-8226 leukemia): 2.98 µM | TGI (K-562 leukemia): 13.6 µM | TGI (HT29 colon): 27.3 µM | TGI (TK-10 renal): 5.23 µM | TGI (SNB-19 CNS): 50.7 µM | TGI (HOP-92 NSCLC): 7 µM | TGI (SK-MEL-5 melanoma): > 53.7 µM

N#Cc1c(OCCF)c2ccccc2n2c1nc1ccccc12
TGI (MCF7 breast): > 100 µM | TGI (SF-268 CNS): > 100 µM | TGI (HCT-116 colon): > 100 µM | TGI (RPMI-8226 leukemia): > 100 µM | TGI (K-562 leukemia): > 100 µM | TGI (HT29 colon): > 100 µM | TGI (TK-10 renal): > 100 µM | TGI (SNB-19 CNS): > 100 µM | TGI (SK-MEL-5 melanoma): > 100 µM

CO/N=C1/c2sccc2[C@H](NC(=O)CNC(=O)OC(C)(C)C)[C@@H]1O
TGI (MCF7 breast): > 100 µM | TGI (SF-268 CNS): > 100 µM | TGI (HCT-116 colon): > 100 µM | TGI (K-562 leukemia): > 100 µM | TGI (HT29 colon): > 100 µM | TGI (TK-10 renal): > 100 µM | TGI (SNB-19 CNS): > 100 µM | TGI (HOP-92 NSCLC): > 100 µM | TGI (SK-MEL-5 melanoma): > 100 µM

O=C(O[C@H](/C=C/c1ccccc1)P1(=O)N(Cc2ccccc2)[C@@H]2CCCC[C@H]2N1Cc1ccccc1)c1ccccc1
TGI (MCF7 breast): > 100 µM | TGI (SF-268 CNS): > 100 µM | TGI (HCT-116 colon): 12.1 µM | TGI (RPMI-8226 leukemia): 6.39 µM | TGI (K-562 leukemia): > 100 µM | TGI (HT29 colon): 18.4 µM | TGI (TK-10 renal): > 100 µM | TGI (SNB-19 CNS): > 100 µM | TGI (HOP-92 NSCLC): 6.72 µM | TGI (SK-MEL-5 melanoma): 3.88 µM

CN(O)C(=O)Cc1ccc(OCc2cccc(Cl)c2)cc1
TGI (MCF7 breast): > 100 µM | TGI (SF-268 CNS): > 100 µM | TGI (HCT-116 colon): > 100 µM | TGI (RPMI-8226 leukemia): > 100 µM | TGI (K-562 leukemia): > 100 µM | TGI (HT29 colon): > 100 µM | TGI (TK-10 renal): > 100 µM | TGI (SNB-19 CNS): > 100 µM | TGI (HOP-92 NSCLC): > 100 µM | TGI (SK-MEL-5 melanoma): > 100 µM

CCN(CCCN(CC)C(=O)N[C@@H](Cc1ccccc1)C(=O)NC)C(=O)N[C@@H](Cc1ccccc1)C(=O)NC
TGI (SF-268 CNS): > 100 µM | TGI (HCT-116 colon): > 100 µM | TGI (HT29 colon): > 100 µM | TGI (TK-10 renal): > 100 µM | TGI (SNB-19 CNS): > 100 µM | TGI (HOP-92 NSCLC): > 100 µM | TGI (SK-MEL-5 melanoma): > 100 µM

CC1CC(C#N)=C2NCCCCN2C1=O (centres undefined)
TGI (MCF7 breast): > 100 µM | TGI (SF-268 CNS): > 100 µM | TGI (RPMI-8226 leukemia): > 100 µM | TGI (K-562 leukemia): > 100 µM | TGI (HT29 colon): > 100 µM | TGI (TK-10 renal): > 100 µM | TGI (SNB-19 CNS): > 100 µM | TGI (SK-MEL-5 melanoma): > 100 µM

CC(=O)Nc1ccc(Cl)c(Cl)c1
TGI (SF-268 CNS): > 100 µM | TGI (HCT-116 colon): > 100 µM | TGI (RPMI-8226 leukemia): > 100 µM | TGI (K-562 leukemia): > 100 µM | TGI (HT29 colon): > 100 µM | TGI (TK-10 renal): > 100 µM | TGI (SNB-19 CNS): > 100 µM

Cc1ccc(C(=O)Nc2ccc(CP(=O)(O)O)cc2)cc1NC(=O)c1cccc(NC(=O)Nc2cccc(C(=O)Nc3cc(C(=O)Nc4ccc(CP(=O)(O)O)cc4)ccc3C)c2)c1
TGI (MCF7 breast): > 100 µM | TGI (SF-268 CNS): > 100 µM | TGI (HCT-116 colon): > 100 µM | TGI (RPMI-8226 leukemia): > 100 µM | TGI (K-562 leukemia): > 100 µM | TGI (HT29 colon): > 100 µM | TGI (TK-10 renal): > 100 µM | TGI (SNB-19 CNS): > 100 µM | TGI (SK-MEL-5 melanoma): > 100 µM

CSc1c(C(=O)Nc2ccc(C)cc2)c(N)[nH]c(=O)c1C#N
TGI (MCF7 breast): > 100 µM | TGI (SF-268 CNS): > 100 µM | TGI (HCT-116 colon): > 100 µM | TGI (RPMI-8226 leukemia): > 100 µM | TGI (K-562 leukemia): > 100 µM | TGI (HT29 colon): > 100 µM | TGI (TK-10 renal): > 100 µM | TGI (SNB-19 CNS): > 100 µM | TGI (SK-MEL-5 melanoma): > 100 µM
